Patent US20190211099A1, “METHODS AND COMPOSITIONS FOR TREATING CANCER WITH SIGLEC-9 ACTIVITY MODULATORS” (KING'S COLLEGE LONDON, priority 2016, published 2019)

How the values were obtained:
[1] = tested on: recombinant Siglecs 3, 7, 9 and 10; assay: Binding of biotinylated MUC1 glycoforms to plate-bound recombinant Siglec fusion proteins; parameters: species or system human; settings: 2 μg/ml biotinylated MUC1 glycoform, 4 hours; panel Siglec 3, 5, 7, 8, 9 and 10
Procedure: Binding was enhanced when cells were pre-treated with 0.04 U/ml neuraminidase for 30 minutes at 37° C. in PBS (FIG. 3C), which removes competing cis-binding sialic acid sites from the surface of the cells. As this pattern is characteristic of binding to Siglecs (Macauley et al. (2014) NAT. REV. IMMUNOL. 14: 653-666), MUC1-ST binding to Siglecs was tested as follows: mouse anti human IgG was bound to plastic O/N and the plate was blocked using 1% BSA in PBS. Recombinant human Siglec (3, 5, 7, 8, 9 and 10) fusion proteins were added at 2 μg/mL for 2 hours. After incubation with 2 μg/ml biotinylated MUC1 glycoforms for 4 hours, O.D. was measured after the addition of streptavidin-HRP and substrate. […] Although Siglecs 3, 7 and 9 are expressed by monocytes and macrophages (FIG. 3D), a blocking antibody to Siglec-9 inhibited 80-95% of the MUC1-ST binding to these cells (FIGS. 2G-2I, 3E, and 5) indicating this is the dominant binding Siglec. […] Importantly, Siglec-9 bound to the breast cancer cell line T47D that expresses MUC1 carrying sialylated Core-1 glycans (FIG. 2J). Finally, isolated monocytes were bound to 10 μg/mL biotinylated MUC1-ST or 10 μg/mL biotinylated polyacrylamide carrying the ST glycan (PAA-ST; Glycotech).

THP-1 cells = assay: Calcium flux in differentiated THP-1 cells; assay type: cell-based, human; settings: THP-1 differentiated with PMA, 100 μg/mL MUC1-ST
Procedure: In addition, in a murine tumor model Siglec-E (the mouse Siglec with the most similarity to human Siglec-9), was associated with a decrease in alternatively activated macrophages (Laubli et al. (2014) PROC. NATL. ACAD. SCI. USA). As a result, the triggering of a calcium flux when MUC1-ST engaged Siglec-9 was investigated. Briefly, monocytes pre-labeled with an intracellular calcium reporter (Fluo-4; Life Technologies) were treated with MUC1-ST, MUC1-T (100 μg/10^6 cells) or a T47D monolayer, for 4 hours at 4° C. The cells were brought up to 37° C. and calcium flux was measured at 530 nm using a plate reader at the indicated time points. Where not indicated, the time point was 60 seconds. When monocytes or macrophages were treated with MUC1-ST, a Siglec-9 dependent increase in calcium influx was observed (FIGS. 13E-F). A calcium flux was also observed when monocytes and T47D cells came into contact. This effect could also be inhibited by the anti-Siglec-9 antibody.
The intracellular effects of MUC1-ST binding to Siglec-9 were further explored in the monocytic cell line, THP-1. […] THP-1 cells were further treated with DMSO or the MEK/ERK inhibitor PD98059 at 1004, and the concentration of PAI-1, M-CSF and kynurenine in cell supernatants were measured as described above. […]

macrophages = assay: Phenotype of MUC1-ST treated macrophages (CD206, CD163, PD-L1; flow cytometry); assay type: cell-based, human
Procedure: Both the cell phenotype staining and neutralization studies described in the Examples were performed using the following antibodies (all anti-human): Siglec-9 (Biotechne; 191240), Siglec-9 FITC (Biotechne; 191240), Siglec-3 (Biotechne; 6C5/2), Siglec-7 (Biotechne; AF1138), Siglec-3 FITC (BD; P67.6), Siglec-7 PE (Biolegend; 6-434), Siglec-10 PE (Biolegend; 5G6), Siglec-1 (abcam; 7D2), HLA-DR FITC (Beckman Coulter; IM0463U), CD16 FITC (Biolegend; B73.1), CD14 FITC (BD 555397), CD69 PE (Beckman Coulter; IM1943), CD25 FITC (ABX228FITC), CD86 PE (Beckman Coulter; IM2729U), CD40 FITC (BD 555588), CD83 PE (Beckman Coulter; IM2218), CD163 PE (Biolegend; GHI/61), CXCR1 FITC (BD Pharmongen; 551126), CD45 PC5 (Beckman Coulter; IM2653U), CD206 PE (ebioscience; 19.2), PD-L1 PE (Biolegend; 29E.2A3), CD36 (Santa Cruz; H-300), TGFbetaRII (Bio-Techne; AF-241), IL-6Rα (Tocilizumab; Roche. A generous gift from Dr. Valerie Corrigall). Cells were suspended in PBS+0.5% BSA (2×10^5 cells/100 μL/sample) and incubated with Abs according to the manufacturer's instructions. At least 1×10^4 events were evaluated using either Epics XL, (Beckman Coulter) or FACSCalibur (BD Biosciences) flow cytometers. Analysis was performed using either WinMDI or Cellquest software.

binding to recombinant Siglec fusion proteins [1]: bound
Substance: NeuAcα2,3Galβ1-3GalNAc linked via a Ser/Thr of MUC1 [MUC1-ST]
calcium flux (THP-1 cells): induce calcium flux
expression of immune checkpoint ligand PD-L1 (macrophages): increased expression
levels of mannose receptor (CD206) and scavenger receptor CD163 (macrophages): increased levels
